Legend:
[1] = target: His-Brd2(60-472) (Homo sapiens (Human), UniProt P25440); assay: TR-FRET in-vitro binding assay for BRD2; conditions: biochemical
Summary of the method: (§1)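 His-tagged BRD2(60-472), BRD3(20-477) or BRD4(44-477), 45 nM in dispensing solution, with 60 nM tetra-acetylated histone H4 peptide (AcK5/8/12/16) in dispensing solution; HEPES pH 7.5, 50 mM NaCl, 0.1% BSA, 30 °C, 35 min. Eu-anti-His6 antibody plus streptavidin-APC added for TR-FRET read-out; 8-point compound dilutions.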

[2] = target: His-Brd3(20-477) (Homo sapiens (Human), UniProt Q15059); assay: TR-FRET in-vitro binding assay for BRD3; conditions: biochemical
Sequence of His-Brd3(20-477) (Q15059 20-477): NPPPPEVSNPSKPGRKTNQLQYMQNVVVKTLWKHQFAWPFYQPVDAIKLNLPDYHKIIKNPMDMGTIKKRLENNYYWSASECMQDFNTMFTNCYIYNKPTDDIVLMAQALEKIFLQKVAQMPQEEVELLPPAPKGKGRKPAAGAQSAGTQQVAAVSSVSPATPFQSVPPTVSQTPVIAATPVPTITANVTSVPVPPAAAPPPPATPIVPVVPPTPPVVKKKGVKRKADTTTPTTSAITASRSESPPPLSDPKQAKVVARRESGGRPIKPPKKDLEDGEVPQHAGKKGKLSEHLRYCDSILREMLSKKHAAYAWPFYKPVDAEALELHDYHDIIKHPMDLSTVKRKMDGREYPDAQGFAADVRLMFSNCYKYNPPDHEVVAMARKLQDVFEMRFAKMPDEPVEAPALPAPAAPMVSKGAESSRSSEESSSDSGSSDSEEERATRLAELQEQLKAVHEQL
Summary of the method: as §1

[3] = target: His-CREBBP (1081-1197) bromodomain (Homo sapiens (Human), UniProt Q92793); assay: AlphaScreen in-vitro binding assay for CREBBP; conditions: biochemical
Sequence of His-CREBBP (1081-1197) bromodomain (Q92793 1081-1197): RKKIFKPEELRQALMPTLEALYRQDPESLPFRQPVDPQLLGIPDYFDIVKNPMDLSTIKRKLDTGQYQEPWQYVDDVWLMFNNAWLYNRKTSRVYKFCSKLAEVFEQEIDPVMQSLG
Summary of the method: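 Ni-chelate acceptor and streptavidin donor beads (45 µg/mL each, in 50 mM HEPES pH 7.5, 150 mM NaCl, 0.02% BSA) were then added for 60 min at room temperature. IC50 came from 8-point non-linear regression.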

[4] = target: nuclear BRD4-NUT foci in HCC2494 NUT midline carcinoma cells (Homo sapiens (Human), UniProt O60885+Q86Y26); assay: Nut-foci formation assay; assay type: cell-based; conditions: 24 hours, read-out: HCS Brd4-NUT IC50
Description: HCC2494 NUT midline carcinoma cells (expressing BRD4-NUT-fusion) were obtained from the University of Texas Southwestern and cultured in RPMI-1640 medium containing 10% Foetal Calf Serum at 37° C. in a humidified 5% CO2 incubator.
Compound-mediated inhibition of BRD4 activity was monitored by quantification of the number and intensity of nuclear BRD4-NUT foci using automated immunofluorescence microscopy. Briefly, 5000 cells in 20 μL fresh medium were seeded into Poly-D-Lysine-precoated 384-well plates and incubated overnight at 37° C. and 5% CO2, followed by addition of 5 μl medium containing compound dilutions at 5-fold their final intended concentration. Dose-response effects were assessed by 3-fold serial dilutions of the test compound, starting at 10 μM. Following incubation of the cells for 24 hours at 37° C. and 5% CO2, the cells were fixed by incubation with 3.7% formaldehyde for 10 min, followed by immunofluorescence staining using rabbit anti-NUT (Cell Signaling Technologies, Cat#3625) as primary, and AlexaFluor488-labeled goat anti-rabbit (Invitrogen, Cat#A11008) as secondary antibody (latter complemented with 1 μg/mL Hoechst33342 as DNA dye). Assay plates were imaged using the appropriate filter sets on the Cellomics VTi automated fluorescence microscopy platform (ThermoFisher Scientific) and the population average of the number of NUT-foci per nucleus is quantified using the Cellomics Spot Detection BioApplication image analysis algorithm (ThermoFisher Scientific). The effect of a particular test compound concentration on NUT-foci number and intensity is expressed as percentage of the value obtained for cells treated with vehicle only (DMSO, 0.1% final concentration), which was set as 100. Compound concentrations leading to half-maximal (IC50) inhibition of the aforementioned readout parameters were determined using standard four parameter curve fitting.

Sequence of His-Brd2(60-472) (P25440 60-472): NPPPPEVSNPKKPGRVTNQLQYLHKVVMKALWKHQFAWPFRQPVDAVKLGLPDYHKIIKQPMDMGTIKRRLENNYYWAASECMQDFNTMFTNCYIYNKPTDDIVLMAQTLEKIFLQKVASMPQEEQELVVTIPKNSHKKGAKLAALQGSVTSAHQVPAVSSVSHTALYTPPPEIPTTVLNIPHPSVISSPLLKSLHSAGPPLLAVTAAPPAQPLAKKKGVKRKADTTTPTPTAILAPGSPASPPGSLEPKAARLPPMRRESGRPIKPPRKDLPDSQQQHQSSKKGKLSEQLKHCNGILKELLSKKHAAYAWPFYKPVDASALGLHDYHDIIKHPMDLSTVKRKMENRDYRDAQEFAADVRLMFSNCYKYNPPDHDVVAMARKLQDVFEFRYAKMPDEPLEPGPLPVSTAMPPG

Structure (SMILES) | IC50 [1] [nM] | IC50 [2] [nM] | IC50 [3] [nM] | IC50 [4] [nM]
Cc1nn(C2CC2)c2c1[C@@H](c1ccc(Cl)cc1)N(c1cc(C)c(=O)n(C)c1)C2=O [Example 49, (R)-4-(4-chlorophenyl)-1-cyclopropyl-5-(1,5-dimethyl-6-oxo-1,6-dihydropyridin-3-yl)-3-methyl-4,5-dihydropyrrolo[3,4-c]pyrazol-6(1H)-one] | 15 | 19 | 1300 | 34.1
Cc1nn(C(=O)N(C)C)c2c1[C@@H](c1ccc(Cl)cc1)N(c1cc(C)c3nnc(C)n3c1)C2=O [Example 149, (R)-4-(4-chlorophenyl)-5-(3,8-dimethyl-[1,2,4]triazolo[4,3-a]pyridin-6-yl)-N,N,3-trimethyl-6-oxo-5,6-dihydropyrrolo[3,4-c]pyrazole-1(4H)-carboxamide] | 36 | 39 | 6900 | 35.3
Cc1nn(C2COC2)c2c1C(c1ccc(Cl)cc1)N(c1cc(C)c(=O)n(C)c1)C2=O (stereo not shown) [Example 135, 4-(4-chlorophenyl)-5-(1,5-dimethyl-6-oxo-1,6-dihydropyridin-3-yl)-3-methyl-1-(oxetan-3-yl)-4,5-dihydropyrrolo[3,4-c]pyrazol-6(1H)-one] | 150 | 130 | > 37000 | 93.4
Cc1cc(N2C(=O)c3c(cnn3C3CC3)C2c2ccc(Cl)cc2)cn(C)c1=O (stereo not shown) [Example 34, 4-(4-chlorophenyl)-1-cyclopropyl-5-(1,5-dimethyl-6-oxo-1,6-dihydropyridin-3-yl)-4,5-dihydropyrrolo[3,4-c]pyrazol-6(1H)-one] | 95 | 110 | 5200 | 202
CC(=O)Nc1cc(N2C(=O)c3c(c(C)nn3C3CC3)C2c2ccc(Cl)cc2)nn2c(C)nnc12 (stereo not shown) [Example 126, N-(6-(4-(4-chlorophenyl)-1-cyclopropyl-3-methyl-6-oxopyrrolo[3,4-c]pyrazol-5-(1H,4H,6H)-yl)-3-methyl-[1,2,4]triazolo[4,3-b]pyridazin-8-yl)acetamide] |  | > 37000 | > 37000 | 587
COc1ncccc1-n1nc(C)c2c1C(=O)N(c1cc(Cl)c(=O)n(C)c1)C2c1ccc(Cl)cc1 (stereo not shown) [Example 72, 5-(5-chloro-1-methyl-6-oxo-1,6-dihydropyridin-3-yl)-4-(4-chlorophenyl)-1-(2-methoxypyridin-3-yl)-3-methyl-4,5-dihydropyrrolo[3,4-c]pyrazol-6(1H)-one] | 60 | 73 | 8200 | 141
Cc1nn(C2CC2)c2c1C(c1ccc(OC(F)(F)F)cc1)N(c1cc(C)c(=O)n(C)c1)C2=O (stereo not shown) [Example 95, 1-cyclopropyl-5-(1,5-dimethyl-6-oxo-1,6-dihydropyridin-3-yl)-3-methyl-4-(4-(trifluoromethoxy)phenyl)-4,5-dihydropyrrolo[3,4-c]pyrazol-6(1H)-one] | 63 | 73 | 7700 | 191
Cc1nn(C2COC2)c2c1C(c1ccc(Cl)cc1)N(c1cc(C)c3nnc(C)n3c1)C2=O (stereo not shown) [Example 137, 4-(4-chlorophenyl)-5-(3,8-dimethyl-[1,2,4]triazolo[4,3-a]pyridin-6-yl)-3-methyl-1-(oxetan-3-yl)-4,5-dihydropyrrolo[3,4-c]pyrazol-6(1H)-one] | 92 | 100 | > 37000 | 57.7
CC(=O)N1CC(n2nc(C)c3c2C(=O)N(c2cc(C)c4nnc(C)n4c2)C3c2ccc(Cl)cc2)C1 (stereo not shown) [Example 154, 1-(1-acetylazetidin-3-yl)-4-(4-chlorophenyl)-5-(3,8-dimethyl-[1,2,4]triazolo[4,3-a]pyridin-6-yl)-3-methyl-4,5-dihydropyrrolo[3,4-c]pyrazol-6(1H)-one] | 120 | 120 | > 37000 | 208
Cc1cc(N2C(=O)c3nn(C4COC4)c(C)c3C2c2ccc(Cl)cc2)cn2c(C)nnc12 (stereo not shown) [Example 136, 4-(4-chlorophenyl)-5-(3,8-dimethyl-[1,2,4]triazolo[4,3-a]pyridin-6-yl)-3-methyl-2-(oxetan-3-yl)-4,5-dihydropyrrolo[3,4-c]pyrazol-6(2H)-one] | 140 | 130 | 4300 | 92.8
Cc1nn(C2CN(C)C2)c2c1C(c1ccc(Cl)cc1)N(c1cc(C)c3nnc(C)n3c1)C2=O (stereo not shown) [Example 157, 4-(4-chlorophenyl)-5-(3,8-dimethyl-[1,2,4]triazolo[4,3-a]pyridin-6-yl)-3-methyl-1-(1-methylazetidin-3-yl)-4,5-dihydropyrrolo[3,4-c]pyrazol-6(1H)-one] | 77 | 200 | > 37000 | 99.7
CCc1c2c(nn1C(=O)N(C)C)C(=O)N(c1cc(C)c(=O)n(C)c1)C2c1ccc(Cl)cc1 (stereo not shown) [Example 148, 4-(4-chlorophenyl)-5-(1,5-dimethyl-6-oxo-1,6-dihydropyridin-3-yl)-3-ethyl-N,N-dimethyl-6-oxo-5,6-dihydropyrrolo[3,4-c]pyrazole-2(4H)-carboxamide] | 220 | 160 | 4100 | 118
CCc1nn(C2CC2)c2c1[C@H](c1ccc(Cl)cc1)N(c1cc(C)c3nnc(C)n3c1)C2=O [Example 106, (S)-4-(4-chlorophenyl)-1-cyclopropyl-5-(3,8-dimethyl-[1,2,4]triazolo[4,3-a]pyridin-6-yl)-3-ethyl-4,5-dihydropyrrolo[3,4-c]pyrazol-6(1H)-one] | 2900 | 4400 | > 37000 | 2240
COc1ncccc1-n1nc(C)c2c1C(=O)N(c1cc(C)c3nnc(C)n3n1)C2c1ccc(Cl)cc1 (stereo not shown) [Example 111, 4-(4-chlorophenyl)-5-(3,8-dimethyl-[1,2,4]triazolo[4,3-b]pyridazin-6-yl)-1-(2-methoxypyridin-3-yl)-3-methyl-4,5-dihydropyrrolo[3,4-c]pyrazol-6(1H)-one] | 32 | 24 | 29700 | 34.3
COc1c2c(nn1C)C(=O)N(c1cc(C)c(=O)n(C)c1)C2c1ccc(Cl)cc1 (stereo not shown) [Example 77, 4-(4-chlorophenyl)-5-(1,5-dimethyl-6-oxo-1,6-dihydropyridin-3-yl)-3-methoxy-2-methyl-4,5-dihydropyrrolo[3,4-c]pyrazol-6(2H)-one] |  |  | 1900 | 99.5
COCc1nn(C2CC2)c2c1C(c1ccc(Cl)cc1)N(c1cc(C)c3nnc(C)n3c1)C2=O (stereo not shown) [Example 130, 4-(4-chlorophenyl)-1-cyclopropyl-5-(3,8-dimethyl-[1,2,4]triazolo[4,3-a]pyridin-6-yl)-3-(methoxymethyl)-4,5-dihydropyrrolo[3,4-c]pyrazol-6(1H)-one] |  |  | 19000 | 13.9
Cc1nn(C2CC2)c2c1[C@@H](c1ccc(Cl)cc1)N(c1cc(C)c3nnc(C)n3n1)C2=O [Example 122, (R)-4-(4-chlorophenyl)-1-cyclopropyl-5-(3,8-dimethyl-[1,2,4]triazolo[4,3-b]-pyridazin-6-yl)-3-methyl-4,5-dihydropyrrolo[3,4-c]pyrazol-6(1H)-one] |  |  | > 37000 | 7.3
